Test results: publication PMC11563871, “The human ATAD5 has evolved unique structural elements to function exclusively as a PCNA unloader” (Nature Structural & Molecular Biology, 2024)

Legend:
[1] = system: T1, human ATAD5-RFC–PCNA complex; experiment: cryo-EM structure; format: binding; conditions: 0.5 mM ATPγS, Mg2+; bound at ATAD5, RFC2, RFC5 and (states 1 and 2) RFC4
T1 construct: N-terminally truncated ATAD5 (812-end of 1844), N-terminal 3xFLAG and C-terminal 6xHis, with RFC2-RFC5, insect cells (Sf9/Hi5); PCNA homotrimer from E. coli, His tag cut by thrombin; with Proliferating cell nuclear antigen

ATAD5-RFC = system: T2, ATAD5-RFC; experiment: malachite green phosphate ATPase assay; format: biochemical, Homo sapiens; conditions: 1 mM ATP, 0.25 μM ATAD5-RFC, 2 mM MgCl2, pH 7.6, room temperature; alone or with PCNA and/or DNA
T2 construct: N-terminally truncated ATAD5 (812-end of 1844), N-terminal 3xFLAG and C-terminal 6xHis, heteropentamer with RFC2-RFC5, insect cells (Sf9/Hi5)
T2 sequence (Q96QE3 812-1844): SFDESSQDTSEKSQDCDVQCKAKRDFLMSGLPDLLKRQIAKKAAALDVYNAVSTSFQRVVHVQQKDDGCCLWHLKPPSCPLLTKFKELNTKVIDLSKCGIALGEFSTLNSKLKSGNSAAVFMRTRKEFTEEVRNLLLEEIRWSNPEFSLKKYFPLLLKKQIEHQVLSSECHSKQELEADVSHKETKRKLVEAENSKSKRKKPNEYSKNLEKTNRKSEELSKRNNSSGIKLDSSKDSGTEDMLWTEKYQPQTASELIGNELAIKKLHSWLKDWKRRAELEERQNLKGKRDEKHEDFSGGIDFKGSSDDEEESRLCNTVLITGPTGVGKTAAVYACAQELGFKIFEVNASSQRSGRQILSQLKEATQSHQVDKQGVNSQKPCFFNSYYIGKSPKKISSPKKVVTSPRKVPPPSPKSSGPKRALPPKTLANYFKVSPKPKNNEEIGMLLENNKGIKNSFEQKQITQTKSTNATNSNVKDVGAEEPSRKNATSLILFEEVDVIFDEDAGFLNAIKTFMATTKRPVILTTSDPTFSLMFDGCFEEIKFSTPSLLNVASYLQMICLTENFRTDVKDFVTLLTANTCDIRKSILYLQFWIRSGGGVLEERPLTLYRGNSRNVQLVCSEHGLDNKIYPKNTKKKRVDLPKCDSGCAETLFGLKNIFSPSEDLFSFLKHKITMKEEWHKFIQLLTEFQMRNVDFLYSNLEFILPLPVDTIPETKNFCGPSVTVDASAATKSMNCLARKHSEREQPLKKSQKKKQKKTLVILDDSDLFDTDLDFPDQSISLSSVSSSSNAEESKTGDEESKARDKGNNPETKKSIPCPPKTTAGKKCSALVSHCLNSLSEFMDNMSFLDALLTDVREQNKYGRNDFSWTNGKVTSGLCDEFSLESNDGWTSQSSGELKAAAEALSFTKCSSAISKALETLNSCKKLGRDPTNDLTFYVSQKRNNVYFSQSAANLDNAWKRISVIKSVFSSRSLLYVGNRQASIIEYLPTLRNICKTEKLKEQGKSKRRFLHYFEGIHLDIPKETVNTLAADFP
T2 sequence (P35250 whole entry, further chain, the tested form may be a part): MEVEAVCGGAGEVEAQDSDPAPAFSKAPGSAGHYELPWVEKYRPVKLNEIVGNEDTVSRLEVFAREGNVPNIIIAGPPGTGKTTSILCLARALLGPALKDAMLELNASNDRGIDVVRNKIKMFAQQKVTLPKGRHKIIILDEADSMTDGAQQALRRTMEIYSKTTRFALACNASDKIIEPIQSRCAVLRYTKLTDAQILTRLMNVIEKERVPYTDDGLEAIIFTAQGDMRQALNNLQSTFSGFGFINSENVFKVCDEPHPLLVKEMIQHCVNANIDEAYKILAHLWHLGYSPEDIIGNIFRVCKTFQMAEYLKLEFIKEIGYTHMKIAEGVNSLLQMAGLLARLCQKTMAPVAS
T2 sequence (P40938 whole entry, further chain, the tested form may be a part): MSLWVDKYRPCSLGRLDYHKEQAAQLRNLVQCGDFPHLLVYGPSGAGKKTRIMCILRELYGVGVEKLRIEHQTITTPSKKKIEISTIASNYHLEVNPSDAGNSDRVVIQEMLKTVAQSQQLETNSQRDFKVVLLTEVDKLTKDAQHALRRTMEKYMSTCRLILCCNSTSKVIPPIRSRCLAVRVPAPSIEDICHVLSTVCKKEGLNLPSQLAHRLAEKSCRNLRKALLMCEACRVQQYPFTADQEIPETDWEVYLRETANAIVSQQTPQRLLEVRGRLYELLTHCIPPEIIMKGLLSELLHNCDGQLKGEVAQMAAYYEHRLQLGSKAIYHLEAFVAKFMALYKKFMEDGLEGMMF
T2 sequence (P35249 whole entry, further chain, the tested form may be a part): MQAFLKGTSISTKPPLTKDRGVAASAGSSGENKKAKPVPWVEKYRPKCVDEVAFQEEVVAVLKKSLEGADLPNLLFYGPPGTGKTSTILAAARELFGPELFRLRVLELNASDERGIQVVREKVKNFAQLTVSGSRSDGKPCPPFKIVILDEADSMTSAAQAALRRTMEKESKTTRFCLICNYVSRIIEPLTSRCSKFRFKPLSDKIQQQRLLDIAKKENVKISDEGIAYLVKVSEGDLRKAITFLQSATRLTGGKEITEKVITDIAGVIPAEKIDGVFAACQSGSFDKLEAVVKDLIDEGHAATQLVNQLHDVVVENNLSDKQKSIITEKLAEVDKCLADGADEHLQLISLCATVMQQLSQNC
T2 sequence (P40937 whole entry, further chain, the tested form may be a part): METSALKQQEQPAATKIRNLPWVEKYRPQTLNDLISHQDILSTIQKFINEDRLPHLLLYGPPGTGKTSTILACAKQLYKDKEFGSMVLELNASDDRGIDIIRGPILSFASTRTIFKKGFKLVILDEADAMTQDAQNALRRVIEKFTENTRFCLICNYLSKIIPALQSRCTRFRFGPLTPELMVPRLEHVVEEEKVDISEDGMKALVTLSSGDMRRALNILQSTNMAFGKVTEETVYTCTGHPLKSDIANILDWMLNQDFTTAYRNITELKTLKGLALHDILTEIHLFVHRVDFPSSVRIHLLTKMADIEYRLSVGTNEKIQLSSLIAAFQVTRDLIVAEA

T1 sequence (Q96QE3 812-1844): as the sequence (Q96QE3 812-1844) above
T1 sequence (P35250 whole entry, further chain, the tested form may be a part): as the sequence (P35250 whole entry, further chain, the tested form may be a part) above
T1 sequence (P40938 whole entry, further chain, the tested form may be a part): as the sequence (P40938 whole entry, further chain, the tested form may be a part) above
T1 sequence (P35249 whole entry, further chain, the tested form may be a part): as the sequence (P35249 whole entry, further chain, the tested form may be a part) above
T1 sequence (P40937 whole entry, further chain, the tested form may be a part): as the sequence (P40937 whole entry, further chain, the tested form may be a part) above
T1 sequence (P12004 whole entry partner, the tested form may be a part): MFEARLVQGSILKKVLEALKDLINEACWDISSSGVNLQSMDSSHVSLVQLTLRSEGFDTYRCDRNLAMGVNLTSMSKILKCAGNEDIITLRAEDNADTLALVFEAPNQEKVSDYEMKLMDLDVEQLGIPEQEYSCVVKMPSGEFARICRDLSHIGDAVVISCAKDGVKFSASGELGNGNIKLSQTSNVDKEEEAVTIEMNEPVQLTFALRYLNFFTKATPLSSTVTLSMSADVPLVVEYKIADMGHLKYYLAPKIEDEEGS

Structure (SMILES)	cryo-EM structure [1]	ATP hydrolyzed/min (ATAD5-RFC)
Nc1ncnc2c1ncn2[C@@H]1O[C@H](COP(=O)(O)OP(=O)(O)OP(O)(O)=S)[C@@H](O)[C@H]1O [ATPγS]	four subunits (ATAD5, RFC2, RFC5 and RFC4, that is, subunits A–D) each bound an ATPγS	–
Nc1ncnc2c1ncn2[C@@H]1O[C@H](COP(=O)(O)OP(=O)(O)OP(=O)(O)O)[C@@H](O)[C@H]1O [ATP]	–	ATP hydrolyzed/min by ATAD5-RFC alone or with PCNA and/or DNA
